Where two headings read alike, the source gives them in different places.
Columns and labels:
[1] = test system: Chinese hamster ovary (CHO)-K1 cells; experiment: In vitro micronucleus test (flow cytometry); type: cell-based
Excerpt: The treatment with the vehicle/negative and positive controls was concurrently performed.

[2] = Toxicokinetics, 14-day intranasal study in rats (Study 700041); type: in vivo; conditions: Sprague Dawley, rat, plasma, inhaled or intranasal; for AUC(0-t): read-out: AUC0-Tlast [SE]; for AUC(0-inf): read-out: AUCINF_obs
Protocol: The animals were monitored for mortality, clinical signs, respiratory measurements, body weights, food consumption, and body temperature. Ophthalmoscopic examinations and respiratory function tests were performed on all animals at scheduled timepoints. Clinical pathology assessments (hematology, coagulation, clinical chemistry, and urinalysis) were evaluated at termination. […] Following dosing, the Main animals were euthanized and subjected to a complete necropsy examination on Day 15. […] TK animals were euthanized after the last blood collection and discarded without further examination. At terminal euthanasia, selected tissues/organs were weighed, and microscopic evaluations of a standard set of tissues including the nasal turbinates (4 sections) and brain (7 sections) were performed for all Main and Recovery study animals.
Following dosing, animals in the Main group were euthanized and subjected to a necropsy examination on Day 15.

[3] = test system: Salmonella typhimurium tester strains; experiment: Bacterial Reverse Mutation Test (Ames test), Salmonella typhimurium
Sprague-Dawley rats = experiment: Maximum tolerated dose followed by 7-day repeat-dose toxicology in rats (Study 700040); type: in vivo, rat
Protocol: (§1) The study consisted of 2 parts. […] The doses used in part 1 were 15, 30, 50, 65, and 75 mg/kg. Each subsequent dose was administered following at least 24 hours from the commencement of the previous dose. There were 2 males and 2 females in each dose group.
(§2) During Phase I, assessments of mortality, clinical signs and body weights were performed. […] The necropsy consisted of an external examination, including reference to all clinically-recorded lesions, as well as a detailed internal examination.
(§3) During Phase 2, assessments of mortality, clinical signs and body weights were performed. Following dosing, all animals were euthanized and subjected to a necropsy examination on Day 8. The necropsy consisted of an external examination, including reference to all clinically-recorded lesions, as well as a detailed internal examination. Study plan specific tissues/organs were collected and retained, then trimmed and preserved promptly once the animal was euthanized but these were not further examined microscopically.

[4] = as above; type: in vivo, rat; conditions: both sexes, Sprague-Dawley, rat, in vivo, inhaled or intranasal; single intranasal administration
Protocol: as §1, §2, §3

Dog = experiment: Summary of clinical observations in applicant-sponsored dog studies; type: in vivo; conditions: Dog 1.0 mg/kg (= 33 mg HED); preliminary data, ongoing study
Excerpt: (§4) Based on preliminary data from another ongoing study in dogs, it has been observed that the site of blood sampling in dogs may impact the measured plasma exposure. Samples from the jugular vein may result in higher apparent exposure levels than samples from the cephalic vein, which might be due to the local transmucosal route of administration (also reported in the scientific literature (Illum, 2003; Sohlberg, 2013)). Therefore, dose escalation criteria for the Phase 1 Single Ascending Dose study are based on assessment of clinical criteria, safety factors and exposure. A maximum dose of 14 mg has been designated.

[5] = as above; type: in vivo; conditions: beagle, in vivo, other: intranasal instillation; Dog; HED 50 mg; read-out: NOAEL determined in the 14-day toxicology studies
Excerpt: as §4

[6] = Toxicokinetics in dog MTD study (Study 62958); type: in vivo
Protocol: During Phase 2, assessments of mortality, clinical signs, body weights and food consumption were performed. […] Following the last dosing, all animals were euthanized and subjected to a necropsy examination on Day 8. The necropsy consisted of an external examination; including reference to all clinically-recorded lesions, as well as a detailed internal examination. Study plan specific tissues/organs were collected and preserved following necropsy but were not further examined microscopically.
There were no sex differences in any of the measured toxicokinetic parameters on either occasion.

[7] = Summary of clinical observations in applicant-sponsored rat studies; conditions: Sprague Dawley, in vivo, other: intranasal instillation, HED 48 mg, read-out: NOAEL determined in the 14-day toxicology studies
Excerpt: as §4

male Sprague-Dawley rats = experiment: Functional Observational Battery (FOB), single intranasal administration (ITR study 15951); type: in vivo, rat
Protocol: The test and control/vehicle items were administered by single dose intranasal administration to both nostrils, as shown in Table 7.
Parameters monitored included mortality and clinical signs. General behavioral changes were assessed using FOB at 6 timepoints: before dosing, and at 15 minutes, 1, 2, 4, and 24 hours postdosing. On each occasion, the FOB was performed at 4 stages: when the animals were in their home cage, while handling the animals, when the animals were freely moving in an open-field, and when they received diverse stimuli for reactivity evaluation. The body temperature and neuromuscular strength were also measured on each of the occasions detailed above.

[8] = female, 5 mg/kg/day, Day 1, Female
[9] = female, 5 mg/kg/day, Day 14, Female
[10] = female, 20 mg/kg/day, Day 1, Female
[11] = female, 75 mg/kg/day, Day 1, Female
[12] = female, 75 mg/kg/day, Day 14, Female
[13] = male, 5 mg/kg/day, Day 14, Male
[14] = male, 20 mg/kg/day, Day 1, Male
[15] = male, 20 mg/kg/day, Day 14, Male
[16] = male, 75 mg/kg/day, Day 1, Male
[17] = male, 75 mg/kg/day, Day 14, Male

Structure (SMILES): COc1ccc2[nH]cc(CCN(C)C)c2c1 [5MeODMT, 5-methoxy-N,N-dimethyltryptamine]
- Chromosome-damaging potential (conclusion) [1]: no chromosome-damaging potential
- Micronuclei or hypodiploid cells ([1]; all treatment regimens, absence or presence of S9): did not induce any increases in micronuclei or hypodiploid cells
- Cytotoxicity or precipitation ([1]; up to the maximal dose level of 300 μg/mL): No cytotoxicity or precipitation
- Tmax ([2]; both sexes, 75 mg/kg, rats, 14-day intranasal study, 5, 20, 75 mg/kg): 2 to 5 min
- half-life ([2]; both sexes, 75 mg/kg, rats, 14-day intranasal study, 5, 20, 75 mg/kg, read-out: apparent t1/2): 6.8 to 9.4 min
- Cmax [2, 8]: 186 ng/mL
- Tmax [2, 8]: 9.96 min
- AUC(0-t) [2, 8]: 53.2 ng·h/mL
- AUC(0-inf) [2, 8]: 53.7 ng·h/mL
- Cmax [2, 9]: 645 ng/mL
- AUC(0-t) [2, 9]: 63.8 ng·h/mL
- AUC(0-inf) [2, 9]: 64 ng·h/mL
- half-life ([2]; female, 5 mg/kg/day, Day 14, Female, read-out: t1/2 (converted)): 6.78 min
- Cmax [2, 10]: 679 ng/mL
- AUC(0-t) [2, 10]: 198 ng·h/mL
- AUC(0-inf) [2, 10]: 198 ng·h/mL
- Cmax ([2]; female, 20 mg/kg/day, Day 14, Female): 795 ng/mL
- Cmax [2, 11]: 1310 ng/mL
- AUC(0-t) [2, 11]: 228 ng·h/mL
- AUC(0-inf) [2, 11]: 228 ng·h/mL
- half-life ([2]; female, 75 mg/kg/day, Day 1, Female, read-out: t1/2 (converted)): 9.36 min
- Cmax [2, 12]: 870 ng/mL
- AUC(0-t) [2, 12]: 155 ng·h/mL
- half-life ([2]; female, 75 mg/kg/day, Day 14, Female, read-out: t1/2 (converted)): 7.8 min
- Cmax ([2]; male, 5 mg/kg/day, Day 1, Male): 191 ng/mL
- AUC(0-t) ([2]; male, 5 mg/kg/day, Day 1, Male): 39.9 ng·h/mL
- AUC(0-inf) ([2]; male, 5 mg/kg/day, Day 1, Male): 40.1 ng·h/mL
- Cmax [2, 13]: 627 ng/mL
- AUC(0-t) [2, 13]: 114 ng·h/mL
- AUC(0-inf) [2, 13]: 115 ng·h/mL
- Cmax [2, 14]: 4190 ng/mL
- AUC(0-t) [2, 14]: 420 ng·h/mL
- AUC(0-inf) [2, 14]: 421 ng·h/mL
- half-life ([2]; male, 20 mg/kg/day, Day 1, Male, read-out: t1/2 (converted)): 7.5 min
- Cmax [2, 15]: 1200 ng/mL
- AUC(0-t) [2, 15]: 133 ng·h/mL
- AUC(0-inf) [2, 15]: 133 ng·h/mL
- half-life ([2]; male, 20 mg/kg/day, Day 14, Male, read-out: t1/2 (converted)): 8.58 min
- Cmax [2, 16]: 7010 ng/mL
- AUC(0-t) [2, 16]: 1030 ng·h/mL
- AUC(0-inf) [2, 16]: 1040 ng·h/mL
- Cmax [2, 17]: 3290 ng/mL
- AUC(0-t) [2, 17]: 391 ng·h/mL
- AUC(0-inf) [2, 17]: 392 ng·h/mL
- half-life ([2]; male, 75 mg/kg/day, Day 14, Male, read-out: t1/2 (converted)): 6.96 min
- Cytotoxicity ([3]; 1600 μg/plate, all S. typhimurium strains): slight cytotoxicity
- Repeat test, revertant colonies ([3]; TA1537 and TA98, absence of S9 mix, up to 2000 μg/plate): no increases in the revertant colonies number per plate
- Mutagenic potential (conclusion) ([3]; absence or presence of S9): no mutagenic potential
- Body weight gain (Sprague-Dawley rats; 75 mg/kg for 7 consecutive days): slightly suppressed for both sexes
- Tolerability, 7 consecutive days (Sprague-Dawley rats; 75 mg/kg once daily intranasal): tolerated
- Tolerability, single intranasal administration (Sprague-Dawley rats; dose levels up to 75 mg/kg): tolerated
- Mortality and gross pathology (Sprague-Dawley rats; single dose 15, 30, 50, 65, 75 mg/kg): no mortality and gross pathology findings at any dose
- MTD at 14 days [4]: 75 mg/kg

Structure (SMILES): COc1ccc2[nH]cc(CCN(C)C)c2c1 [BPL-5MEO, 5-methoxy-N,N-dimethyltryptamine]
- Clinical observations (Dog): Slighttremor
- NOAEL at 14 days [5]: 1.5 mg/kg
- Accumulation over the 7-day treatment period ([6]; daily intranasal instillation): did not accumulate
- Tmax ([6]; dog, plasma, inhaled or intranasal, dogs, Days 1 and 7, both sexes): 2 to 15 min
- NOAEL at 14 days [7]: 5 mg/kg
- Clinical sign in one animal (male Sprague-Dawley rats; 10 mg/kg): twitching
- Resolution of clinical signs and FOB changes (male Sprague-Dawley rats; 1.5, 3, and 10 mg/kg): fully resolved within 1 or 2 hours following dosing
- Clinical signs in some animals (male Sprague-Dawley rats; 3 and 10 mg/kg doses): Tremors, salivation, and gasping
- FOB behavioral domain (male Sprague-Dawley rats; 15 minutes postdose, comparable to control at 1-hour postdose): transient decreased activity, lying on the cage floor, and decreased rearing
- Clinical signs immediately following dosing (male Sprague-Dawley rats; all dose groups, transient): decreased activity, lying on the cage floor, shallow/increased respiration and dilated pupils
- FOB neurological (sensorimotor)/neuromuscular domain (male Sprague-Dawley rats; all dose levels, comparable to control at 1-hour postdose): transient changes in gait (difficulty in movement)
- FOB autonomic domain (male Sprague-Dawley rats; all dose levels, comparable with control at 2 hours postdose): salivation, piloerection, increased respiration, dilated pupils and changes in body temperature

From patent publication US11518742B2 (priority 2020, dated 2022)
